Test results reported in paper PMC10562414, “GLP-1R signaling neighborhoods associate with the susceptibility to adverse drug reactions of incretin mimetics” (Nature Communications, 2023).

How the values were obtained:
GLP-1R [1] = target: T1, GLP-1R (Homo sapiens, UniProt P43220); assay: ebBRET pathway activation (15 pathways), Supplementary Fig. 14; compartment not given; assay type: cell-based
GLP-1R [2] = target: T1, GLP-1R; assay: ebBRET pathway activation (15 pathways) at early endosomes (rGFP-FYVE); assay type: cell-based; settings: for Efficacy (normalized) / Potency (logEC50) / Emax: Early endosomes
Procedure: Subcellular resolution was achieved by using organelle-specific energy acceptors for early endosomes, the Golgi apparatus and the endoplasmic reticulum.
Data are represented as the mean ± SEM (n = 3 biologically independent experiments). EE early endosomes, GA Golgi apparatus, ER endoplasmic reticulum.
HEK293 cells were cultured in DMEM supplemented with 10% FBS, 1% penicillin/streptomycin, propagated in plastic flasks and grown at 37 °C in 5% CO2 and 90% humidity. […] After a 48-hour incubation, cells were washed once with HBSS and maintained in the same buffer.
Best fit values were excluded if EC50 was outside of the concentration range tested or if the span was negative.
Pharmacological characterization of GLP-1R agonist signaling
profiles at early endosomes. a, Illustration depicting the ebBRET approach to monitoring
signaling at early endosomes. b, Concentration-response curves of GLP-1R agonists across 15
pathways at early endosomes using rGFP-F YVE. Data are represented by the non-linear fit and
scaled according to the highest responding drug (n=3 biologic ally independent samples).
Drug-s pecific polar area diagrams for efficacy (normalized to the highest responding drug) (c)
Drugs were deemed to activate
a given pathway after comparing the top and bottom parameters from non-linear regression by
Jaccard similarity index for efficacy (e) and potency (f) quantifies similarities and
differences across drug responses.
Drug- induced transducer engagement by GLP- 1R at early
endosomes. Agonist concentration response curves for 15 transducers at early endosomes.
Drugs were deemed to activate a given pathway after comparing the top and bottom parameters
from non-linear regression by one-sided extra sum-o f-s quares F-t est followed by Bonferroni
Data are represented as the mean ± SEM (n=3
biologically independent samples). Sigmoidal dose-r esponse curves are present for
responsive pathways and flat lines indicate non-r esponding pathway s.
Polar area diagrams depict pathway activation at early endosomes.
Pathway-specific polar area diagrams for efficacy (normalized to the highest responding drug) (a)
Drugs were deemed to activate a
given pathway after comparing the top and bottom parameters from non-linear regression by

T1 sequence (P43220 24-463): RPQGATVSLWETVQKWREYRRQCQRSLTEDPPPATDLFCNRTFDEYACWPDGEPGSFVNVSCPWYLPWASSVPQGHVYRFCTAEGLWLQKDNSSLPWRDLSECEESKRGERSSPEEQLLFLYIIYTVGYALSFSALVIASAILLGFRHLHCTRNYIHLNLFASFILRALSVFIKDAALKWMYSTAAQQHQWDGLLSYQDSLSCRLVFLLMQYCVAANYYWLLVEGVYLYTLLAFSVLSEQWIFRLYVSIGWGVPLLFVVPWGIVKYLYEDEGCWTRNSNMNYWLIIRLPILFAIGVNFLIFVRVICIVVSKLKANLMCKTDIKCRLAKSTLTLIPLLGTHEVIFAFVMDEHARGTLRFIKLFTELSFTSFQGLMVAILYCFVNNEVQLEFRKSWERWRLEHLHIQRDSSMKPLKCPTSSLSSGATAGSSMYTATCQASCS

N#Cc1ccc(COc2cccc(C3CCN(Cc4nc5ccc(C(=O)O)cc5n4C[C@@H]4CCO4)CC3)n2)c(F)c1 [Danuglipron]
Efficacy (normalized), GRK2/Gβγ (GLP-1R [1]; GRK2/Gβγ, Supplementary Fig. 14a, normalized): 0 | Efficacy (normalized), Gα11 (GLP-1R [1]; Gα11, Supplementary Fig. 14a, normalized): 0 | Potency (logEC50), Gα11 (GLP-1R [1]; Gα11, Supplementary Fig. 14b): 0 | Efficacy (normalized), Gα12 (GLP-1R [1]; Gα12, Supplementary Fig. 14a, normalized): 0 | Potency (logEC50), Gα12 (GLP-1R [1]; Gα12, Supplementary Fig. 14b): 0 | Efficacy (normalized), Gα13 (GLP-1R [1]; Gα13, Supplementary Fig. 14a, normalized): 0 | Potency (logEC50), Gα13 (GLP-1R [1]; Gα13, Supplementary Fig. 14b): 0 | Efficacy (normalized), Gα14 (GLP-1R [1]; Gα14, Supplementary Fig. 14a, normalized): 0 | Potency (logEC50), Gα14 (GLP-1R [1]; Gα14, Supplementary Fig. 14b): 0 | Efficacy (normalized), Gα15 (GLP-1R [1]; Gα15, Supplementary Fig. 14a, normalized): 0 | Potency (logEC50), Gα15 (GLP-1R [1]; Gα15, Supplementary Fig. 14b): 0 | Efficacy (normalized), Gαi1 (GLP-1R [1]; Gαi1, Supplementary Fig. 14a, normalized): 0 | Potency (logEC50), Gαi1 (GLP-1R [1]; Gαi1, Supplementary Fig. 14b): 0 | Efficacy (normalized), Gαi2 (GLP-1R [1]; Gαi2, Supplementary Fig. 14a, normalized): 0 | Potency (logEC50), Gαi2 (GLP-1R [1]; Gαi2, Supplementary Fig. 14b): 0 | Efficacy (normalized), Gαi3 (GLP-1R [1]; Gαi3, Supplementary Fig. 14a, normalized): 0 | Potency (logEC50), Gαi3 (GLP-1R [1]; Gαi3, Supplementary Fig. 14b): 0 | Efficacy (normalized), GαoA (GLP-1R [1]; GαoA, Supplementary Fig. 14a, normalized): 0 | Potency (logEC50), GαoA (GLP-1R [1]; GαoA, Supplementary Fig. 14b): 0 | Efficacy (normalized), GαoB (GLP-1R [1]; GαoB, Supplementary Fig. 14a, normalized): 0 | Potency (logEC50), GαoB (GLP-1R [1]; GαoB, Supplementary Fig. 14b): 0 | Efficacy (normalized), Gαq (GLP-1R [1]; Gαq, Supplementary Fig. 14a, normalized): 0 | Potency (logEC50), Gαq (GLP-1R [1]; Gαq, Supplementary Fig. 14b): 0 | Efficacy (normalized), Gαs (GLP-1R [1]; Gαs, Supplementary Fig. 14a, normalized): 0.8077 | Potency (logEC50), Gαs (GLP-1R [1]; Gαs, Supplementary Fig. 14b): 0.7638 | Efficacy (normalized), Gαz (GLP-1R [1]; Gαz, Supplementary Fig. 14a, normalized): 1 | Potency (logEC50), Gαz (GLP-1R [1]; Gαz, Supplementary Fig. 14b): 0.517 | Efficacy (normalized), βARR2 (GLP-1R [1]; βARR2, Supplementary Fig. 14a, normalized): 0.4942 | Potency (logEC50), βARR2 (GLP-1R [1]; βARR2, Supplementary Fig. 14b): 0.4339 | Efficacy (normalized) (GLP-1R [2]; GRK2/Gβγ): 0.507 | Potency (logEC50) (GLP-1R [2]; GRK2/Gβγ): 0.4671 | Efficacy (normalized) (GLP-1R [2]; Gα11): 0 | Emax (GLP-1R [2]; Gα11): 0 | Potency (logEC50) (GLP-1R [2]; Gα11): 0 | Efficacy (normalized) (GLP-1R [2]; Gα12): 0 | Emax (GLP-1R [2]; Gα12): 0 | Potency (logEC50) (GLP-1R [2]; Gα12): 0 | Efficacy (normalized) (GLP-1R [2]; Gα13): 0 | Emax (GLP-1R [2]; Gα13): 0 | Potency (logEC50) (GLP-1R [2]; Gα13): 0 | Efficacy (normalized) (GLP-1R [2]; Gα14): 0.9516 | Emax (GLP-1R [2]; Gα14): 0.02161 | Potency (logEC50) (GLP-1R [2]; Gα14): 0.7414 | Efficacy (normalized) (GLP-1R [2]; Gα15): 0 | Emax (GLP-1R [2]; Gα15): 0 | Potency (logEC50) (GLP-1R [2]; Gα15): 0 | Efficacy (normalized) (GLP-1R [2]; Gαi1): 0 | Emax (GLP-1R [2]; Gαi1): 0 | Potency (logEC50) (GLP-1R [2]; Gαi1): 0 | Efficacy (normalized) (GLP-1R [2]; Gαi2): 0 | Emax (GLP-1R [2]; Gαi2): 0 | Potency (logEC50) (GLP-1R [2]; Gαi2): 0 | Efficacy (normalized) (GLP-1R [2]; Gαi3): 0 | Emax (GLP-1R [2]; Gαi3): 0 | Potency (logEC50) (GLP-1R [2]; Gαi3): 0 | Efficacy (normalized) (GLP-1R [2]; GαoA): 0.4649 | Emax (GLP-1R [2]; GαoA): 0.009912 | Potency (logEC50) (GLP-1R [2]; GαoA): 0.573 | Efficacy (normalized) (GLP-1R [2]; GαoB): 0.7256 | Emax (GLP-1R [2]; GαoB): 0.03076 | Potency (logEC50) (GLP-1R [2]; GαoB): 0.2577 | Efficacy (normalized) (GLP-1R [2]; Gαq): 0 | Emax (GLP-1R [2]; Gαq): 0 | Potency (logEC50) (GLP-1R [2]; Gαq): 0 | Efficacy (normalized) (GLP-1R [2]; Gαs): 0 | Emax (GLP-1R [2]; Gαs): 0 | Potency (logEC50) (GLP-1R [2]; Gαs): 0 | Efficacy (normalized) (GLP-1R [2]; Gαz): 0.5189 | Emax (GLP-1R [2]; Gαz): 0.05365 | Potency (logEC50) (GLP-1R [2]; Gαz): 0.2291 | Efficacy (normalized) (GLP-1R [2]; βARR2): 0.458 | Potency (logEC50) (GLP-1R [2]; βARR2): 0.384 | Emax (GLP-1R [2]; GRK/Gβγ): 0.1194 | Emax (GLP-1R [2]; βARR): 0.07877 | mGs recruitment at early endosomes, in words (GLP-1R [2]; Rluc8-mGs, rGFP-FYVE, 60 min, n = 3): did not promote mGs recruitment at early endosomes at the concentrations tested
